In test [1] the target is T1, His tagged full-length PTPN1 protein (Homo sapiens, UniProt P18031).
T1 construct: made in house
T1 sequence (P18031 with tags, fused parts or gaps): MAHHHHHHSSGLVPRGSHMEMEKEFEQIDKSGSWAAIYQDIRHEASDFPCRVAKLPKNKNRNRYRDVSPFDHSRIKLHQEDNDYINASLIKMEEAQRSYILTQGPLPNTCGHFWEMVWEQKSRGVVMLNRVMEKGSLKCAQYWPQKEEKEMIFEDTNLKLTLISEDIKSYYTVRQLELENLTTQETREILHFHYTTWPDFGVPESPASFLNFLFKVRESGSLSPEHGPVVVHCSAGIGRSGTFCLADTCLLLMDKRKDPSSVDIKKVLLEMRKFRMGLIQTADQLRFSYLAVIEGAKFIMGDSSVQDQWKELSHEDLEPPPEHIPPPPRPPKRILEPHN
Kind of test: Mobility shift assay (MSA) to determine potency of PTPN1 inhibitors. Type of test: biochemical. Particulars: 0.5 nM enzyme, 2 μM substrate. How it is done: Compound activity was determined using in house His tagged full-length PTPN1 protein (SEQ ID NO: 3) in an in vitro enzymatic reaction. The enzymatic assay used to determine activity is a mobility shift assay using a LabChip EZ Reader by Caliper Life Sciences. The enzymatic reaction was carried out in assay buffer (50 mM HEPES pH 7.5, 1 mM EGTA, 10 mM EDTA. 0.01% Tween® 20, and 2 mM DTT). The compounds were dispensed on a white 384 well ProxiPlate™ (PerkinElmer Cat #6008289) plate using a Labcyte Echo® liquid handler at varying concentrations (12 point, 1:3 dilution). The enzyme (at 0.5 nM) was incubated with compound for 10 minutes at room temperature. Then the substrate (phosphorylated insulin receptor probe sequence: ((OG488)-(NH—CH2—CH2—O—CH2—CH2—O—CH2—CO)-T-R-D-I-(PY)-E-T-D-Y—Y—R—K—K—NH2) (SEQ ID NO: 2) was added at 2 μM to the plates and incubated for another 10 minutes at room temperature. Finally, a quench solution (water and 4-bromo-3-(2-oxo-2-propoxyethoxy)-5-(3-{[1-(phenylmethanesulfonyl)piperidin-4-yl]amino}phenyl)thiophene-2-carboxylic acid) was added to the plates, which were then run on the EZ Reader (excitation 488 nm, emission 530 nm) to measure % conversion (the amount of phosphorylated substrate which was de-phosphorylated by PTPN1). […] The % inhibition was then used to calculate the IC50 values.

In test [2] the target is T2, His tagged PTPN2 (TC45) protein (Homo sapiens, UniProt P17706).
T2 construct: made in house
T2 sequence (P17706 with tags, fused parts or gaps isoform P17706-2): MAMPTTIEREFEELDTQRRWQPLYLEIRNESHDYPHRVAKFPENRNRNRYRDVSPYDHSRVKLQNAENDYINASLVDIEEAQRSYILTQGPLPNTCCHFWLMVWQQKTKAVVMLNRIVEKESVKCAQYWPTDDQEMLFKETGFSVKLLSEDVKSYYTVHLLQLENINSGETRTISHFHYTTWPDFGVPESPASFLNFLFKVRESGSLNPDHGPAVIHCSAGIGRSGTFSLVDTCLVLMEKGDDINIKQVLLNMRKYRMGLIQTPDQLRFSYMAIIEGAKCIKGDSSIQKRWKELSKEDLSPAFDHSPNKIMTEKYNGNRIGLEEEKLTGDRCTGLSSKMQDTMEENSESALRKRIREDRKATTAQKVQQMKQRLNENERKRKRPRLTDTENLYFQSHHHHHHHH
Kind of test: Mobility shift assay (MSA) to determine potency of PTPN2 inhibitors. Type of test: biochemical. Particulars: 0.5 nM enzyme, 2 μM substrate. How it is done:
Compound activity was determined using in house His tagged PTPN2 (TC45) protein (SEQ ID NO: 1) in an in vitro enzymatic reaction. The enzymatic assay used to determine activity was a mobility shift assay using a LabChip EZ Reader by Caliper Life Sciences. The enzymatic reaction was carried out in assay buffer (50 mM HEPES pH 7.5, 1 mM EGTA, 10 mM EDTA, 0.01% Tween® 20, and 2 mM DTT). The compounds were dispensed on a white 384 well ProxiPlate™ (PerkinElmer Catalog #6008289) plate using the Labcyte Echo at varying concentrations (12 point, 1:3 dilution). The enzyme (at 0.5 nM) was incubated with compound for 10 minutes at room temperature. Then the substrate (phosphorylated insulin receptor probe sequence: ((OG488)-(NH—CH2—CH2—O—CH2—CH2—O—CH2—CO)-T-R-D-I-(PY)-E-T-D-Y—Y—R—K—K—NH2) (SEQ ID NO: 2) was added at 2 μM to the plates and incubated for another 10 minutes at room temperature. Finally, a quench solution (water and 4-bromo-3-(2-oxo-2-propoxyethoxy)-5-(3-{[1-(phenylmethanesulfonyl)piperidin-4-yl]amino}phenyl)thiophene-2-carboxylic acid) was added to the plates, which were then run on the EZ Reader (excitation 488 nm, emission 530 nm) to measure % conversion (the amount of phosphorylated substrate which was de-phosphorylated by PTPN2). […] The % inhibition was then used to calculate the IC50 values.

The results in this text go back to patent publication US20250122160A1, “PROTEIN TYROSINE PHOSPHATASE INHIBITORS AND METHODS OF USE THEREOF” (Calico Life Sciences LLC, priority 0001, published 2025).

What is called IC50 is the midpoint of a concentration-inhibition curve.

Take `Cc1n[nH]c(C)c1CN1CCc2cc(O)c(N3CC(=O)NS3(=O)=O)c(F)c2C1` [Compound 212]: the IC50 in test [1] and in test [2] was > 100 nM throughout.

As for `Cc1nn(C)c(C)c1CN1CCc2cc(O)c(N3CC(=O)NS3(=O)=O)c(F)c2C1` [Compound 213], the IC50 in test [1] and in test [2] was > 100 nM each time.

As for `O=C1CN(c2c(O)cc3c(c2F)CN(CCC2CCOCC2)CC3)S(=O)(=O)N1` [Compound 214], the 50% inhibitory concentration (IC50) in test [1] and in test [2] was 10 to 100 nM each time.

With `COCCN1CCc2cc(O)c(N3CC(=O)NS3(=O)=O)c(F)c2C1` [Compound 216], the IC50 in test [1] and in test [2] was > 100 nM throughout.

Turning to `COCCCN1CCc2cc(O)c(N3CC(=O)NS3(=O)=O)c(F)c2C1` [Compound 217], the half-inhibitory concentration (IC50) in test [1] and in test [2] was > 100 nM each time.

As for `NCCCN1CCc2cc(O)c(N3CC(=O)NS3(=O)=O)c(F)c2C1` [Compound 218], the values for the IC50 in test [1] and in test [2] were 10 to 100 nM and > 100 nM, respectively.

Take `O=C1CN(c2c(O)cc3c(c2F)CN(CCCC2CCNCC2)CC3)S(=O)(=O)N1` [Compound 219]: the 50% inhibitory concentration (IC50) in test [1] and in test [2] was 10 to 100 nM each time.

For the compound `CC(C)CCN1CCc2cc(O)c(N3CC(=O)NS3(=O)=O)c(F)c2C1` [Compound 220], the IC50 in test [1] and in test [2] was 10 to 100 nM each time.

Turning to `CC(C)(C)OC(=O)N1CCc2cc(O)c(N3CC(=O)NS3(=O)=O)c(F)c2C1` [Compound 221], the IC50 in test [1] was in the range of 1 to 10 nM; in test [2], 10 to 100 nM.

For `Cc1nn(C)c(C)c1CN1CC(N2CCc3cc(O)c(N4CC(=O)NS4(=O)=O)c(F)c3C2)C1` [Compound 224], the IC50 in test [1] is 10 to 100 nM; in test [2], > 100 nM.

Turning to `Cc1nn(CC(F)F)c(C)c1CCN1Cc2c(cc(O)c(N3CC(=O)NS3(=O)=O)c2F)C(F)(F)C1` [Compound 226], the IC50 in test [1] and in test [2] was 10 to 100 nM in each case.

For the compound `Cc1nn(CCCC(C)(C)C#N)c(C)c1CN1CCc2cc(O)c(N3CC(=O)NS3(=O)=O)c(F)c2C1` [Compound 227], the IC50 in test [1] and in test [2] was > 100 nM throughout.

For the compound `O=C1CN(c2c(O)cc3c(c2F)CN(CC2CCNCC2)CC3)S(=O)(=O)N1` [Compound 228], the IC50 in test [1] was 10 to 100 nM; in test [2], > 100 nM.

With `O=C1CN(c2c(O)cc3c(c2F)CN(CCCN2CCOCC2)CC3)S(=O)(=O)N1` [Compound 229], the 50% inhibitory concentration (IC50) in test [1] and in test [2] was 10 to 100 nM in each case.

With `O=C1CN(c2c(O)cc3c(c2F)CN(CCC2CCNCC2)CC3)S(=O)(=O)N1` [Compound 230], the IC50 in test [1] is 10 to 100 nM; in test [2], > 100 nM.

In the case of `O=C1CN(c2c(O)cc3c(c2F)CN(CC[C@H]2C[C@@H](OC(F)(F)F)C2)CC3)S(=O)(=O)N1` [Compound 231], the IC50 in test [1] lay within 1 to 10 nM; in test [2] it was 10 to 100 nM.

Regarding `CN1CCN(CCCN2CCc3cc(O)c(N4CC(=O)NS4(=O)=O)c(F)c3C2)CC1` [Compound 232], the half-inhibitory concentration (IC50) is 10 to 100 nM in test [1] and > 100 nM in test [2].

For the compound `CC(C)OCCN1CCc2cc(O)c(N3CC(=O)NS3(=O)=O)c(F)c2C1` [Compound 233], the IC50 in test [1] was 10 to 100 nM; in test [2], > 100 nM.

Consider `Cc1nn(C)c(C)c1CN1CCC(N2CCc3cc(O)c(N4CC(=O)NS4(=O)=O)c(F)c3C2)CC1` [Compound 236], for which the IC50 in test [1] is 10 to 100 nM; in test [2] it was > 100 nM.

For `Cc1nn(C)c(C)c1CN1CC2(CC(N3CCc4cc(O)c(N5CC(=O)NS5(=O)=O)c(F)c4C3)C2)C1` [Compound 237], the concentration for half-maximal inhibition (IC50) in test [1] and in test [2] was > 100 nM in each case.

As for `Cc1nn(C(F)F)c(C)c1CCN1CCc2cc(O)c(N3CC(=O)NS3(=O)=O)c(F)c2C1` [Compound 238], the IC50 in test [1] and in test [2] was 1 to 10 nM throughout.

On to `O=C1CN(c2c(O)cc3c(c2F)CN(CCC2(C(F)(F)F)CC2)CC3)S(=O)(=O)N1` [Compound 243], for which the IC50 in test [1] and in test [2] was 1 to 10 nM throughout.

`O=C1CN(c2c(O)cc3c(c2F)CN(CCCO)CC3)S(=O)(=O)N1` [Compound 244]: the 50% inhibitory concentration (IC50) in test [1] and in test [2] was 10 to 100 nM throughout.

As to `C[C@H](N)CN1CCc2cc(O)c(N3CC(=O)NS3(=O)=O)c(F)c2C1` [Compound 245], the IC50 in test [1] and in test [2] was 10 to 100 nM throughout.

`C[C@@H](N)CN1CCc2cc(O)c(N3CC(=O)NS3(=O)=O)c(F)c2C1` [Compound 246]: the IC50 in test [1] and in test [2] was 10 to 100 nM in each case.

With `O=C1CN(c2c(O)cc3c(c2F)CN(CCN2CCNCC2)CC3)S(=O)(=O)N1` [Compound 247], the 50% inhibitory concentration (IC50) in test [1] and in test [2] was 10 to 100 nM in each case.

Consider `COC(CN1CCc2cc(O)c(N3CC(=O)NS3(=O)=O)c(F)c2C1)C1CCCC1` (stereo not drawn) [Compound 249], for which the IC50 in test [1] and in test [2] was 10 to 100 nM each time.

For the compound `N[C@H](CCC1CCCCC1)C(=O)N1CCc2cc(O)c(N3CC(=O)NS3(=O)=O)c(F)c2C1` [Compound 250], the IC50 in test [1] and in test [2] was 10 to 100 nM each time.

As for `CC(C)OCCCN1CCc2cc(O)c(N3CC(=O)NS3(=O)=O)c(F)c2C1` [Compound 251], the 50% inhibitory concentration (IC50) in test [1] and in test [2] was 10 to 100 nM each time.

Regarding `Cn1cc(CCN2CCc3cc(O)c(N4CC(=O)NS4(=O)=O)c(F)c3C2)cn1` [Compound 252], the IC50 in test [1] and in test [2] was > 100 nM each time.

For `Cc1nn(CC(F)F)c(C)c1CCN1CCc2cc(O)c(N3CC(=O)NS3(=O)=O)c(F)c2C1` [Compound 253], the IC50 in test [1] and in test [2] was 1 to 10 nM each time.

For `Cc1nn(C)cc1CCN1CCc2cc(O)c(N3CC(=O)NS3(=O)=O)c(F)c2C1` [Compound 256], the IC50 in test [1] and in test [2] was 1 to 10 nM in each case.

For `Cc1c(CCN2CCc3cc(O)c(N4CC(=O)NS4(=O)=O)c(F)c3C2)cnn1C` [Compound 257], the IC50 in test [1] and in test [2] was 1 to 10 nM in each case.

As to `O=C1CN(c2c(O)cc3c(c2F)CN(C(=O)NCC2CC2)CC3)S(=O)(=O)N1` [Compound 258], the half-maximal inhibitory concentration (IC50) in test [1] and in test [2] was 1 to 10 nM throughout.

Turning to `O=C1CN(c2c(O)cc3c(c2F)CN(C(=O)NCC2CCOCC2)CC3)S(=O)(=O)N1` [Compound 261], the IC50 in test [1] and in test [2] was 10 to 100 nM in each case.

As for `O=C1CN(c2c(O)cc3c(c2F)CN(C(=O)NCC2CC(F)(F)C2)CC3)S(=O)(=O)N1` [Compound 262], the 50% inhibitory concentration (IC50) in test [1] is 1 to 10 nM; in test [2], 10 to 100 nM.

Consider `O=C1CN(c2c(O)cc3c(c2F)CN(C(=O)NCCC2CC2)CC3)S(=O)(=O)N1` [Compound 264], for which the half-maximal inhibitory concentration (IC50) in test [1] and in test [2] was 10 to 100 nM each time.

Regarding `Cc1nn(C(C)(C)C)c(C)c1CCN1CCc2cc(O)c(N3CC(=O)NS3(=O)=O)c(F)c2C1` [Compound 266], the IC50 in test [1] and in test [2] was 1 to 10 nM in each case.

In the case of `Cc1c(CNC(=O)N2CCc3cc(O)c(N4CC(=O)NS4(=O)=O)c(F)c3C2)cnn1C` [Compound 271], the IC50 in test [1] and in test [2] was 10 to 100 nM throughout.
